Key:
Friedreich's Ataxia = conditions: cited from earlier work
[1] = test system: microsomal lipid peroxidation; conditions: cited from earlier work
[2] = oral; cited from earlier work
[3] = test system: learning and memory disturbances; conditions: rats; cited from earlier work
cerebrovascular disease = conditions: nine patients, 90 mg daily; cited from earlier work
[4] = test system: cultured cortical neurons; conditions: cited from earlier work
Solubility of Idebenone = format: physicochemical
Source text: The low water solubility of Idebenone makes the task of producing an injectable form very difficult. Use of water miscible solvents (alcohol, propylene glycol, liquid PEG, N-methylpyrrolidone, etc.), where Idebenone dissolves well, is inappropriate due to the immediate precipitation of the drug upon contact with physiological fluids or a water phase. An inclusion complex of Idebenone with cyclodextrin has been described, but it is water dispersible, not soluble and not suitable for injection. The solubility of Idebenone in fixed oils (soy, corn, almond, etc.) is low; drug precipitates from such emulsions during storage, limiting their use for the preparation of injectable forms of […].

COC1=C(OC)C(=O)C(CCCCCCCCCCO)=C(C)C1=O [Idebenone, 2,3-dimethoxy-5-methyl-6-(10-hydroxydecyl)-1,4-benzoquinone]
marker of oxidative DNA damage (Friedreich's Ataxia; oral 5 mg/kg daily for 8 weeks): significantly decreased
left ventricular enlargement (Friedreich's Ataxia; three patients, 5 mg/kg daily for 4-9 months): reduction of left ventricular enlargement
free radical scavenging ([1]; cell cultures): scavenges a variety of free radical species
microsomal lipid peroxidation ([1]; induced by ADP-iron complexes or organic hydroperoxides): inhibits microsomal lipid peroxidation
bioavailability [2]: relatively high
learning and memory disturbances [3]: ameliorates learning and memory disturbances
EEG and clinical symptoms (cerebrovascular disease): improvements in EEG and clinical symptoms
rescue on delayed application ([4]; applied 30 minutes after the NMDA pulse): rescues cortical neurons
protection against necrotic degeneration ([4]; cultured cortical neurons): protects cultured cortical neurons against necrotic degeneration
solubility in fixed oils (Solubility of Idebenone; fixed oils (soy, corn, almond, etc.)): low
water solubility (Solubility of Idebenone; water): low

— patent US20100130619A1, “PHARMACEUTICAL COMPOSITION FOR PARENTERAL ADMINISTRATION OF IDEBENONE” (priority 2008, published 2010)
